Data from PubChem BioAssay AID1963971 (Molecular Pharmacology Branch, DTP, NCI, 2024).
Where “and” joins values, the source holds several entries; their conditions need not be identical. Equal entries are not always repeated.

Tested on: 953936-095-R-J2-PDC spheroids with HUVEC/MSC, viability
Test: Anticancer human tumor 953936-095-R-J2-PDC patient-derived cervical squamous cell carcinoma cell line growth inhibition [PI3K]
Conditions: for viability, T/C: stronger effect = lower value
From the text: Combinatorial screen of targeted agents with the PI3K inhibitors inavolisib, alpelisib, duvelisib, and copanlisib in multi-cell type tumor spheroids
A high-throughput screen of multi-cell type tumor spheroids was designed to identify active combinations of targeted small molecules and PI3K pathway inhibitors. Complex spheroids include a stromal component modeled by human endothelial cells (HUVEC) and fibroblasts modeled by human mesenchymal stem cells (MSCs). The concentration ranges selected for each drug and investigational agent were based upon clinically achievable concentrations if the clinical Cmax of the agent was known.
Compounds. The drugs and investigational agents: inavolisib (NSC800729), alpelisib (NSC765974), duvelisib (NSC772469), copanlisib (NSC816437), ipatasertib (NSC767898), afuresertib (NSC778305), talazoparib (NSC767125), sapanisertib (NSC764658), selumetinib (NSC741078), tovorafenib (DAY101, NSC766906), vemurafenib (NSC761431), ravoxertinib (NSC781343), sotorasib (NSC818433), MRTX1133 (NSC 836407), abemaciclib (NSC 768073), palbociclib (NSC758247), venetoclax (NSC 766270), SY5609 (NSC837396), enzalutamide (NSC755605), and darolutamide (NSC825331), were obtained from the National Cancer Institute (NCI) Developmental Therapeutics Program Chemical Repository. The FDA-approved anticancer drug set is available from the NCI Developmental Therapeutics Program. […] The stock solutions were prepared in dimethyl sulfoxide (DMSO, Sigma-Aldrich, St. Louis, MO, cat. D2650) at 800-fold the tested concentration and stored at -70 degrees C prior to their use. All drugs and investigational agents were tested over a range starting from a high concentration at or near the clinical Cmax and decreasing in half-log increments. If the clinical Cmax for an agent had not been determined, the highest concentration tested was 10 microM.
Cell Culture. All cells were maintained in an incubator at 37 degrees C and 5% CO2 with 95% humidity. The PDC lines were cultured according to standard operating procedures established by the NCI PDMR (https://pdmr.cancer.gov/sops/default.htm). All PDCs were thawed and cultured in Matrigel-coated flasks prepared with a working solution of 1X Ham's F-12 nutrient mix, without supplementation (Invitrogen, Waltham, MA, cat. 11765054), 100 U/mL penicillin-streptomycin (Invitrogen, cat. 15140122), and 2.5% Matrigel (Corning Inc., Corning, NY, cat. 354248) for the first three passages. The 354836-022-R-J1-PDC, 475296-252-R-J1-PDC, and 997726-040-R-J2-PDC lines were cultured in 6A media, which includes advanced DMEM/F-12 (Thermo Fisher Scientific, cat. 12634028), 10 mM HEPES (Thermo Fisher Scientific, cat. 15630080), 1X GlutaMAX supplement (Thermo Fisher Scientific, cat. 35050061), 0.1 mg/mL primocin (InvivoGen, San Diego, CA, cat. ant-pm-2), 10% defined fetal bovine serum, heat inactivated (HyClone Laboratories Inc., Logan, UT, cat. SH30070.03HI), 50% L-WRN conditioned media (ATCC, cat. CRL-3276), 1.25 mM N-Acetyl-L-cysteine (Sigma-Aldrich, cat. A9165), 10 mM nicotinamide (Sigma-Aldrich, cat. N0636), 1X B-27 supplement (Thermo Fisher Scientific, cat. 17504044), 1X N-2 supplement (Thermo Fisher Scientific, cat. 17502048), and 10 microM Y-27632 dihydrochloride (Tocris Bioscience, Bristol, United Kingdom, cat. 1254). The 624824-186-R-J2-PDC line was cultured in 6C/Colon 1B media, which includes all 6A media components plus 50 ng/mL human EGF recombinant protein (Thermo Fisher Scientific, cat. PHG0311). […]
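Further: spheroids exposed to compounds for seven days before read-out.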

CC(C)n1nc(-c2ccc3oc(N)nc3c2)c2c(N)ncnc21 + CC(Nc1ccc2c(c1)OCCn1cc(N3C(=O)OCC3C(F)F)nc1-2)C(N)=O
IC50 (curve of first compound, second compound 0.00316 µM): 27.5 nM
IC50 (curve of first compound, second compound 0.01 µM): 23.1 nM
IC50 (curve of first compound, second compound 0.0316 µM): 14.2 nM
IC50 (curve of first compound, second compound 0.1 µM): 1.4 nM
IC50 (curve of first compound, second compound 0.316 µM): < 0.316 nM
IC50 (curve of first compound, second compound 1 µM): < 0.316 nM
viability, T/C (second compound 0.00316 µM, first compound 0.000316 µM): 92.9%
viability, T/C (second compound 0.00316 µM, first compound 0.001 µM): 93.3%
viability, T/C (second compound 0.00316 µM, first compound 0.00316 µM): 81.3%
viability, T/C (second compound 0.00316 µM, first compound 0.01 µM): 73.7%
viability, T/C (second compound 0.00316 µM, first compound 0.0316 µM): 46.2%
viability, T/C (second compound 0.00316 µM, first compound 0.1 µM): 15.5%
viability, T/C (second compound 0.01 µM, first compound 0.000316 µM): 87.1%
viability, T/C (second compound 0.01 µM, first compound 0.001 µM): 88.8%
viability, T/C (second compound 0.01 µM, first compound 0.00316 µM): 79.1%
viability, T/C (second compound 0.01 µM, first compound 0.01 µM): 67.6%
viability, T/C (second compound 0.01 µM, first compound 0.0316 µM): 43.6%
viability, T/C (second compound 0.01 µM, first compound 0.1 µM): 15.2%
viability, T/C (second compound 0.0316 µM, first compound 0.000316 µM): 73%
viability, T/C (second compound 0.0316 µM, first compound 0.001 µM): 71.9%
viability, T/C (second compound 0.0316 µM, first compound 0.00316 µM): 73.4%
viability, T/C (second compound 0.0316 µM, first compound 0.01 µM): 53.5%
viability, T/C (second compound 0.0316 µM, first compound 0.0316 µM): 35.7%
viability, T/C (second compound 0.0316 µM, first compound 0.1 µM): 12.1%
viability, T/C (second compound 0.1 µM, first compound 0.000316 µM): 57.7%
viability, T/C (second compound 0.1 µM, first compound 0.001 µM): 52.5%
viability, T/C (second compound 0.1 µM, first compound 0.00316 µM): 44.3%
viability, T/C (second compound 0.1 µM, first compound 0.01 µM): 34%
viability, T/C (second compound 0.1 µM, first compound 0.0316 µM): 21.6%
viability, T/C (second compound 0.1 µM, first compound 0.1 µM): 7.99%
viability, T/C (second compound 0.316 µM, first compound 0.000316 µM): 34.1%
viability, T/C (second compound 0.316 µM, first compound 0.001 µM): 31.2%
viability, T/C (second compound 0.316 µM, first compound 0.00316 µM): 28.5%
viability, T/C (second compound 0.316 µM, first compound 0.01 µM): 22.7%
viability, T/C (second compound 0.316 µM, first compound 0.0316 µM): 13.1%
viability, T/C (second compound 0.316 µM, first compound 0.1 µM): 6.47%
viability, T/C (second compound 1 µM, first compound 0.000316 µM): 20.8%
viability, T/C (second compound 1 µM, first compound 0.001 µM): 21.7%
viability, T/C (second compound 1 µM, first compound 0.00316 µM): 18.3%
viability, T/C (second compound 1 µM, first compound 0.01 µM): 16.3%
viability, T/C (second compound 1 µM, first compound 0.0316 µM): 9.69%
viability, T/C (second compound 1 µM, first compound 0.1 µM): 5.32%

CC(C)n1nc(-c2ccc3oc(N)nc3c2)c2c(N)ncnc21
viability, T/C (compound 0.000316 µM): 91% [middle of 4 runs]
viability, T/C (compound 0.001 µM): 92.7% [middle of 4 runs]
viability, T/C (compound 0.00316 µM): 88.9% [middle of 4 runs]
viability, T/C (compound 0.01 µM): 73.4% [middle of 4 runs]
viability, T/C (compound 0.0316 µM): 50.6% [middle of 4 runs]
viability, T/C (compound 0.1 µM): 17.6% [middle of 4 runs]
IC50 (curve of compound): 32.4 nM [middle of 4 runs]

CC1(C)CCC(Nc2ncc(C(F)(F)F)c(-c3c[nH]c4c(P(C)(C)=O)c(C#N)ccc34)n2)CN1 (stereo not given)
viability, T/C (compound 0.0316 µM): 51.7% [middle of 4 runs]
viability, T/C (compound 0.1 µM): 51.8% [middle of 4 runs]
viability, T/C (compound 0.316 µM): 53.5% [middle of 4 runs]
viability, T/C (compound 1 µM): 53.4% [middle of 4 runs]
viability, T/C (compound 3.16 µM): 55% and 54.4% (2×) and 52.7%
viability, T/C (compound 10 µM): 7.36% [middle of 4 runs]
